Like-named read-outs stand apart in the source and are kept apart here.
Target: T1, 5-HT1B receptor (Macaca mulatta, UniProt F6SFA9)
T1 construct: assess changes in the endogenous serotonin concentration in living rhesus monkeys; from tissue; host or cells: brain of living rhesus monkeys (PET)
Assay: Example 1 PET monkey study: change in [11C]AZ10419369-5-HT1B receptor binding potential (BPND)
Assay type: in vivo, rhesus monkeys
Conditions: rhesus monkey, iv, Citalopram 0.3 mg/kg IV, mean±standard error, n=3, read-out: ΔBPND (% of baseline)
Text: Positron Emission Tomography (PET) was used to assess changes in the endogenous serotonin concentration in living rhesus monkeys. The objective of the present study was two-fold. […] The chemical name for [^11C]MADAM is [^11C] N,N-dimethyl-2-(2-amino-4-methylphenylthio)benzylamine.
FIG. 1 illustrates the study design used for assessment of serotonin releasing capacities. A similar study design was applied for assessment of SERT occupancy.

T1 sequence (F6SFA9 1-390): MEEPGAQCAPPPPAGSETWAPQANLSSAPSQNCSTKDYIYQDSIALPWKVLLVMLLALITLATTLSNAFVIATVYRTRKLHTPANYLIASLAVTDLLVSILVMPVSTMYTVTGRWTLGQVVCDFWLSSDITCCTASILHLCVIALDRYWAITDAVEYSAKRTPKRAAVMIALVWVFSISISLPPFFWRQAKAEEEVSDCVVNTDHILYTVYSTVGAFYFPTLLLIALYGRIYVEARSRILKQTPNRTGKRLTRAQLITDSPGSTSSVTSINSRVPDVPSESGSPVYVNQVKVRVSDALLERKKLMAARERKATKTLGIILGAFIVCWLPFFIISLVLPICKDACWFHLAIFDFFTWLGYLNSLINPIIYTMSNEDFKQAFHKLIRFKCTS

change in vivo at 0.3 mg/kg (Amygdala): 4.6 ± 11.6%
change in vivo at 0.3 mg/kg (Caudate nucleus): 7.1 ± 7.5%
change in vivo at 0.3 mg/kg (Dorsal raphe nucleus): -21.2 ± 5.7%
change in vivo at 0.3 mg/kg (Frontal gyrus): 12.4 ± 9.3%
change in vivo at 0.3 mg/kg (Globus pallidus): -1.6 ± 9.6%
change in vivo at 0.3 mg/kg (Hippocampus): 5.4 ± 12.5%
change in vivo at 0.3 mg/kg (Midbrain): 2.7 ± 5.3%
change in vivo at 0.3 mg/kg (Occipital gyrup): 15.7 ± 11.1%
change in vivo at 0.3 mg/kg (Putamen): 7.3 ± 12%
change in vivo at 0.3 mg/kg (Thalamus): 0.3 ± 5.6%
change in vivo at 0.3 mg/kg (Ventral striatum): 3.1 ± 10.8%
SMILES: CN(C)CCCC1(c2ccc(F)cc2)OCc2cc(C#N)ccc21 (centres unmarked) [Citalopram]

Source: patent US10258617B2, “Dosing regimens for fast onset of antidepressant effect” (H. Lundbeck A/S, priority 2016, dated 2019)
